Columns and labels:
[1] = system: JAK1-dependent STAT6 phosphorylation downstream of IL-13 stimulation in BEAS-2B human bronchial epithelial cells; test: JAK1 pathway assay in BEAS-2B cells (IL-13-pSTAT6, MSD); type: cell-based; conditions: read-out: IL13-pSTAT6 EC50 (uM)_BEAS-2B
Procedure: JAK1 Pathway Assay in Cell Lines was Carried Out as Follows:
Inhibitor potency (EC50) was determined in cell-based assays designed to measure JAK1 dependent STAT phosphorylation.
In one assay approach, TF-1 human erythroleukemia cells obtained from the American Type Culture Collection (ATCC; Manassas, Va.) were used to measure JAK1-dependent STAT6 phosphorylation downstream of IL-13 stimulation. Prior to use in the assays, TF-1 cells were starved of GM-CSF overnight in OptiMEM medium (Life Technologies, Grand Island, N.Y.) supplemented with 0.5% charcoal/dextran stripped fetal bovine serum (FBS), 0.1 mM non-essential amino acids (NEAA), and 1 mM sodium pyruvate. The assays were run in 384-well plates in serum-free OptiMEM medium using 300,000 cells per well. In a second assay approach, BEAS-2B human bronchial epithelial cells obtained from ATCC were plated at 100,000 cells per well of a 96-well plate one day prior to the experiment. The BEAS-2B assay was run in complete growth medium (bronchial epithelial basal medium plus bulletkit; Lonza; Basel, Switzerland).
Test compounds were serially diluted 1:2 in DMSO and then diluted 1:50 in medium just before use. Diluted compounds were added to the cells, for a final DMSO concentration of 0.2%, and incubated for 30 min (for the TF-1 assay) or 1 hr (for the BEAS-2B assay) at 37° C. Then, cells were stimulated with human recombinant cytokine at their respective EC90 concentrations, as previously determined for each individual lot. Cells were stimulated with IL-13 (R&D Systems, Minneapolis, Minn.) for 15 min at 37° C. The TF-1 cell reactions were stopped by the direct addition of 10× lysis buffer (Cell Signaling Technologies, Danvers, Mass.), whereas the BEAS-2B cell incubations were halted by the removal of medium and addition of 1× lysis buffer. The resultant samples were frozen in the plates at −80° C. Compound mediated inhibition of STAT6 phosphorylation was measured in the cell lysates using MesoScale Discovery (MSD) technology (Gaithersburg, Md.).

[2] = target: isolated recombinant JAK1 kinase domain (Homo sapiens (Human), UniProt P23458); test: JAK1 enzyme assay (Caliper LabChip, peptide phosphorylation); type: biochemical; conditions: isolated recombinant JAK1 kinase domain, 25 μM ATP
[3] = target: isolated recombinant JAK2 kinase domain (Homo sapiens (Human), UniProt O60674); test: JAK2 enzyme assay (Caliper LabChip, peptide phosphorylation); type: biochemical; conditions: 25 μM ATP
Sequence of isolated recombinant JAK2 kinase domain (O60674 849-1124): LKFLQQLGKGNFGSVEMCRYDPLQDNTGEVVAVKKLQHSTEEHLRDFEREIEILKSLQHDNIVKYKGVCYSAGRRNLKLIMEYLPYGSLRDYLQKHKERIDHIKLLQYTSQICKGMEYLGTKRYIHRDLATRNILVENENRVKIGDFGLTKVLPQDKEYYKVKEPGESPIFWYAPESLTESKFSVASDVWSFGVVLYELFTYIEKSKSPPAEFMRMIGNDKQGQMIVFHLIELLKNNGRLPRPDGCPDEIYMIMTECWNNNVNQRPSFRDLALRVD

Sequence of isolated recombinant JAK1 kinase domain (P23458 875-1153): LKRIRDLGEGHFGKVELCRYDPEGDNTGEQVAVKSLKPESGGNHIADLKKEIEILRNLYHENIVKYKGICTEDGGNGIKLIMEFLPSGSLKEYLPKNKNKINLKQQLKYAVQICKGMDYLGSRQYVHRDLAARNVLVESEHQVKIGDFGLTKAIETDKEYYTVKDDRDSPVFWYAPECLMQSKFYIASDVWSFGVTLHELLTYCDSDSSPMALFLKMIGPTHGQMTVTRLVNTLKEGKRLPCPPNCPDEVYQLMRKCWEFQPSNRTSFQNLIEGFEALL

SMILES | Ki [2] | Ki [3] | EC50 [1]
COC(=O)CCN1CCN(C(=O)Cn2cc(NC(=O)c3cnn4cccnc34)c(-c3cc(Cl)ccc3OC(F)F)n2)CC1 [Example 331, methyl 3-[4-(2-[3-[5-chloro-2-(difluoromethoxy)phenyl]-4-[pyrazolo[1,5-a]pyrimidine-3-amido]-1H-pyrazol-1-yl]acetyl)piperazin-1-yl]propanoate] | 0.39 nM |  | 0.0176 µM
O=C(O)CCN1CCN(C(=O)Cn2cc(NC(=O)c3cnn4cccnc34)c(-c3cc(Cl)ccc3OC(F)F)n2)CC1 [Example 353, 3-[4-(2-[3-[5-chloro-2-(difluoromethoxy)phenyl]-4-[pyrazolo[1,5-a]pyrimidine-3-amido]-1H-pyrazol-1-yl]acetyl)piperazin-1-yl]propanoic acid] | 0.32 nM |  | 3.61 µM
CCOC(=O)CNC1CCN(C(=O)Cn2cc(NC(=O)c3cnn4cccnc34)c(-c3cc(Cl)ccc3OC(F)F)n2)CC1 [Example 364, ethyl 2-[[1-(2-[3-[5-chloro-2-(difluoromethoxy)phenyl]-4-[pyrazolo[1,5-a]pyrimidine-3-amido]-1H-pyrazol-1-yl]acetyl)piperidin-4-yl]amino]acetate] |  | 1.6 nM | 0.0952 µM
O=C(Nc1cn(CCNCc2cccnc2)nc1-c1cc(Cl)ccc1OC(F)F)c1cnn2cccnc12 [Example 368, N-[3-[5-chloro-2-(difluoromethoxy)phenyl]-1-[2-[(pyridin-3-ylmethyl)amino]ethyl]-1H-pyrazol-4-yl]pyrazolo[1,5-a]pyrimidine-3-carboxamide] |  | 0.51 nM | 0.056 µM
C[C@@H](NCCn1cc(NC(=O)c2cnn3cccnc23)c(-c2cc(Cl)ccc2OC(F)F)n1)c1ccccc1 [Example 384, N-[3-[5-chloro-2-(difluoromethoxy)phenyl]-1-(2-[[(1R)-1-phenylethyl]amino]ethyl)-1H-pyrazol-4-yl]pyrazolo[1,5-a]pyrimidine-3-carboxamide] |  | 0.23 nM | 0.139 µM
C[C@H](NCCn1cc(NC(=O)c2cnn3cccnc23)c(-c2cc(Cl)ccc2OC(F)F)n1)c1ccccc1 [Example 385, N-[3-[5-chloro-2-(difluoromethoxy)phenyl]-1-(2-[[(1S)-1-phenylethyl]amino]ethyl)-1H-pyrazol-4-yl]pyrazolo[1,5-a]pyrimidine-3-carboxamide] |  | 0.3 nM | 0.163 µM
CN1CCN(C/C=C/Cn2cc(NC(=O)c3cnn4cccnc34)c(-c3cc(Cl)ccc3OC(F)F)n2)CC1 [Example 395, N-[3-[5-chloro-2-(difluoromethoxy)phenyl]-1-[(2E)-4-(4-methylpiperazin-1-yl)but-2-en-1-yl]-1H-pyrazol-4-yl]pyrazolo[1,5-a]pyrimidine-3-carboxamide] | 1.29 nM |  | 0.0224 µM
CSCCOC(=O)CNCCn1cc(NC(=O)c2cnn3cccnc23)c(-c2cc(Cl)ccc2OC(F)F)n1 [Example 396, 2-(methylthio)ethyl 2-(2-(3-(5-chloro-2-(difluoromethoxy)phenyl)-4-(pyrazolo[1,5-a]pyrimidine-3-carboxamido)-1H-pyrazol-1-yl)ethylamino)acetate] | 3.29 nM |  | 0.0382 µM
CN(C)C(=O)CNC1CCN(C(=O)Cn2cc(NC(=O)c3cnn4cccnc34)c(-c3cc(Cl)ccc3OC(F)F)n2)CC1 [Example 401, N-(3-(5-chloro-2-(difluoromethoxy)phenyl)-1-(2-(4-(2-(dimethylamino)-2-oxoethylamino)piperidin-1-yl)-2-oxoethyl)-1H-pyrazol-4-yl)pyrazolo[1,5-a]pyrimidine-3-carboxamide] | 0.75 nM |  | 0.152 µM
O=C(Nc1cn(CC(O)CN2CCOCC2)nc1-c1cc(Cl)ccc1OC(F)F)c1cnn2cccnc12 (stereo not drawn) [Example 403, N-(3-(5-chloro-2-(difluoromethoxy)phenyl)-1-(2-hydroxy-3-morpholinopropyl)-1H-pyrazol-4-yl)pyrazolo[1,5-a]pyrimidine-3-carboxamide] | 1.46 nM |  | 0.0283 µM
N#CC1CCN(C2CCN(C(=O)Cn3cc(NC(=O)c4cnn5cccnc45)c(-c4cc(Cl)ccc4OC(F)F)n3)CC2)C1 (stereo not drawn) [Example 409, N-(3-(5-chloro-2-(difluoromethoxy)phenyl)-1-(2-(4-(3-cyanopyrrolidin-1-yl)piperidin-1-yl)-2-oxoethyl)-1H-pyrazol-4-yl)pyrazolo[1,5-a]pyrimidine-3-carboxamide] |  | 0.89 nM | 0.0196 µM
O=C(CN1CCOCC1)Cn1cc(NC(=O)c2cnn3cccnc23)c(-c2cc(Cl)ccc2OC(F)F)n1 [Example 412, N-(3-(5-chloro-2-(difluoromethoxy)phenyl)-1-(3-morpholino-2-oxopropyl)-1H-pyrazol-4-yl)pyrazolo[1,5-a]pyrimidine-3-carboxamide] | 1.7 nM |  | 0.0395 µM
CNC(=O)[C@@H]1CCCN1CC1CCN(C(=O)Cn2cc(NC(=O)c3cnn4cccnc34)c(-c3cc(Cl)ccc3OC(F)F)n2)CC1 [Example 425, N-(3-(5-chloro-2-(difluoromethoxy)phenyl)-1-(2-(4-(((S)-2-(methyl-carbamoyl)pyrrolidin-1-yl)methyl)piperidin-1-yl)-2-oxoethyl)-1H-pyrazol-4-yl)pyrazolo[1,5-a]pyrimidine-3-carboxamide] |  |  | 0.0411 µM
O=C(Nc1cn(CC(=O)N2CCC(N3CC[S+]([O-])CC3)CC2)nc1-c1cc(Cl)ccc1OC(F)F)c1cnn2cccnc12 [Example 443] |  |  | 0.0663 µM
CN(CC1(C#N)CC1)C1CCN(C(=O)Cn2cc(NC(=O)c3cnn4cccnc34)c(-c3cc(Cl)ccc3OC(F)F)n2)CC1 [Example 467, N-(3-(5-chloro-2-(difluoromethoxy)phenyl)-1-(2-(4-(((1-cyanocyclopropyl)methyl) (methyl)amino)piperidin-1-yl)-2-oxoethyl)-1H-pyrazol-4-yl)pyrazolo[1,5-a]pyrimidine-3-carboxamide] |  |  | 0.0075 µM

Now from value to molecule, other results behind:

Ki [2] | Ki [3] | SMILES | EC50 [1]
0.41 nM |  | CN1CCN(C2CCN(C(=O)Cn3cc(NC(=O)c4cnn5cccnc45)c(-c4cc(Cl)ccc4OC(F)F)n3)CC2)CC1=O [Example 416, N-(3-(5-chloro-2-(difluoromethoxy)phenyl)-1-(2-(4-(4-methyl-3-oxopiperazin-1-yl)piperidin-1-yl)-2-oxoethyl)-1H-pyrazol-4-yl)pyrazolo[1,5-a]pyrimidine-3-carboxamide] | 0.0316 µM
0.4 nM |  | CN(C1CCN(C(=O)Cn2cc(NC(=O)c3cnn4cccnc34)c(-c3cc(Cl)ccc3OC(F)F)n2)CC1)[C@@H]1CCOC1 [Example 432, N-(3-(5-chloro-2-(difluoromethoxy)phenyl)-1-(2-(4-(methyl((R)-tetrahydrofuran-3-yl)amino)piperidin-1-yl)-2-oxoethyl)-1H-pyrazol-4-yl)pyrazolo[1,5-a]pyrimidine-3-carboxamide] | 0.0326 µM
0.59 nM |  | CN(CC1(C)OCCO1)C1CCN(C(=O)Cn2cc(NC(=O)c3cnn4cccnc34)c(-c3cc(Cl)ccc3OC(F)F)n2)CC1 [Example 438, N-(3-(5-chloro-2-(difluoromethoxy)phenyl)-1-(2-(4-(methyl((2-methyl-1,3-dioxolan-2-yl)methyl)amino)piperidin-1-yl)-2-oxoethyl)-1H-pyrazol-4-yl)pyrazolo[1,5-a]pyrimidine-3-carboxamide] | 0.015 µM
0.33 nM |  | CN(C1CCN(C(=O)Cn2cc(NC(=O)c3cnn4cccnc34)c(-c3cc(Cl)ccc3OC(F)F)n2)CC1)[C@H]1CCOC1 [Example 442, N-(3-(5-chloro-2-(difluoromethoxy)phenyl)-1-(2-(4-(methyl((S)-tetrahydrofuran-3-yl)amino)piperidin-1-yl)-2-oxoethyl)-1H-pyrazol-4-yl)pyrazolo[1,5-a]pyrimidine-3-carboxamide] | 0.0194 µM
0.45 nM |  | O=C(Nc1cn(Cc2cn(C3CCN(C4CCOCC4)CC3)nn2)nc1-c1cc(Cl)ccc1OC(F)F)c1cnn2cccnc12 [Example 457, N-(3-(5-chloro-2-(difluoromethoxy)phenyl)-1-((1-(1-(tetrahydro-2H-pyran-4-yl)piperidin-4-yl)-1H-1,2,3-triazol-4-yl)methyl)-1H-pyrazol-4-yl)pyrazolo[1,5-a]pyrimidine-3-carboxamide] | 0.0156 µM
0.3 nM |  | CN(C1CCN(C(=O)Cn2cc(NC(=O)c3cnn4cccnc34)c(-c3cc(Cl)ccc3OC(F)F)n2)CC1)C1COC1 [Example 459, N-(3-(5-chloro-2-(difluoromethoxy)phenyl)-1-(2-(4-(methyl(oxetan-3-yl)amino)piperidin-1-yl)-2-oxoethyl)-1H-pyrazol-4-yl)pyrazolo[1,5-a]pyrimidine-3-carboxamide] | 0.0075 µM

— patent US9346815B2, “5-chloro-2-difluoromethoxyphenyl pyrazolopyrimidine compounds, compositions and methods of use thereof” (Genentech, Inc., priority 2014, dated 2016)
